According to patent US11020399B2, “Intermediates useful in the synthesis of compounds as modulators of protein kinases” (Rhizen Pharmaceuticals SA, priority 2011, dated 2021):

How the values were obtained:
[1] = molecular target: PI3kα (Homo sapiens, UniProt P42336); assay: Fluorescent (HTRF) determination of PI3 kinase enzyme activity, PI3Kα; assay type: biochemical; settings: 1 uM
Method in brief: (§1)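 Human PI3K isoforms were preincubated with compound for 10 min at room temperature in 10 mM MgCl2, 5 mM DTT, 1.38 μM PIP2, then reacted 30 min after adding 400 μM ATP stock. PIP3 was read by HTRF (665/620 nm). Percent inhibition used blank and enzyme controls; single-point testing was at 1 uM for α/β and 0.3 or 0.1 uM for γ/δ.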

[2] = molecular target: PI3kβ (Homo sapiens, UniProt P42338); assay: Fluorescent (HTRF) determination of PI3 kinase enzyme activity, PI3Kβ; assay type: biochemical; settings: 1 uM
Method in brief: as §1

[3] = molecular target: PI3kγ (Homo sapiens, UniProt P48736); assay: Fluorescent (HTRF) determination of PI3 kinase enzyme activity, PI3Kγ; assay type: biochemical; settings: 100 nM (Examples 60-137)
Method in brief: as §1

[4] = molecular target: PI3kδ (Homo sapiens, UniProt O00329); assay: Fluorescent (HTRF) determination of PI3 kinase enzyme activity, PI3Kδ; assay type: biochemical
Method in brief: as §1

Chain of PI3kβ (P42338 whole entry): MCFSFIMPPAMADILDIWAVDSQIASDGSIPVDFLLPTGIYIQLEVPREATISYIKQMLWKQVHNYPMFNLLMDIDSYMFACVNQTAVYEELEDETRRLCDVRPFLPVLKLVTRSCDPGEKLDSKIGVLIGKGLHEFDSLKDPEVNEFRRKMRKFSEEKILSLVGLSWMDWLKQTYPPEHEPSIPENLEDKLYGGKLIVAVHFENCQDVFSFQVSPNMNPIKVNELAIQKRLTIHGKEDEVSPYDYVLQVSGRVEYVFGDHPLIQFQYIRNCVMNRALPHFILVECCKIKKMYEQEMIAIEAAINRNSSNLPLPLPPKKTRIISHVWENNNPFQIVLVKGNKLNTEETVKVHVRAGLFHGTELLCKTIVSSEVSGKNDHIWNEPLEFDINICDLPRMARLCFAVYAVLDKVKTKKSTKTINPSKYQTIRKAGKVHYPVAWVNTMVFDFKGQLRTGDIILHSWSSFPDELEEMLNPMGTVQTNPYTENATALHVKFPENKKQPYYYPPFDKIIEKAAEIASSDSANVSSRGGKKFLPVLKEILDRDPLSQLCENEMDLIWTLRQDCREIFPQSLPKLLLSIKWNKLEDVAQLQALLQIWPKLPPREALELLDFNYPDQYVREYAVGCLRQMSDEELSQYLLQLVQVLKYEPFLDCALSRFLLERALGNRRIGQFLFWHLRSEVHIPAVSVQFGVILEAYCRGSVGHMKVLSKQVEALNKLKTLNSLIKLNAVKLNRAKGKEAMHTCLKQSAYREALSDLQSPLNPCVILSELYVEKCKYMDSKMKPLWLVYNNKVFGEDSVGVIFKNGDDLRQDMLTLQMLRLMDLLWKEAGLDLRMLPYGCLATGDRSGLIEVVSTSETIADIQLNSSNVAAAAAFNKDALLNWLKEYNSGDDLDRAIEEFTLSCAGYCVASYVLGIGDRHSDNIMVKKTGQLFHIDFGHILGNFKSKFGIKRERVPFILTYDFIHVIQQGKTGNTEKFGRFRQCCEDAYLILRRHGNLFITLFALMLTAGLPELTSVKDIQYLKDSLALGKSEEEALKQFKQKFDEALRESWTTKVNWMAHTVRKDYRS
Chain of PI3kβ (P27986 whole entry partner): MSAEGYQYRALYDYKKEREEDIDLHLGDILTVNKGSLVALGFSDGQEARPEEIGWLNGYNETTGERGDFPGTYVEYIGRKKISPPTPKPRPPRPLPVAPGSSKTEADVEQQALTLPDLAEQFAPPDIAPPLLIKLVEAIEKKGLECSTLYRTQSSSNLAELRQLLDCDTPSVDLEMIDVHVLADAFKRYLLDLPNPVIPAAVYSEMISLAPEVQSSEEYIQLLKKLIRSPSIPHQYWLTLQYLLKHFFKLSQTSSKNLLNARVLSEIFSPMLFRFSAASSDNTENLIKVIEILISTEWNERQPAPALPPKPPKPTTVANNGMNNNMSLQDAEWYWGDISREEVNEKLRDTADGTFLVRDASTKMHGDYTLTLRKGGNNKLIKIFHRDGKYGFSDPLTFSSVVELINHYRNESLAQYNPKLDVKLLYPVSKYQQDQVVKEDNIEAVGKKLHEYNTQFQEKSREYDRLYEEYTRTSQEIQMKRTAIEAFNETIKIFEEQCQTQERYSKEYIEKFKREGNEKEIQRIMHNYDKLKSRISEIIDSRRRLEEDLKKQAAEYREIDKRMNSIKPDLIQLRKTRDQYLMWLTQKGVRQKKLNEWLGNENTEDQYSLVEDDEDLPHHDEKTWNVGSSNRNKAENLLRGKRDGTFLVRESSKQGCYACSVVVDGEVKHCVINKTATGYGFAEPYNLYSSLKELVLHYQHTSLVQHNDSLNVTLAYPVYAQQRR
Chain of PI3kγ (P48736 whole entry): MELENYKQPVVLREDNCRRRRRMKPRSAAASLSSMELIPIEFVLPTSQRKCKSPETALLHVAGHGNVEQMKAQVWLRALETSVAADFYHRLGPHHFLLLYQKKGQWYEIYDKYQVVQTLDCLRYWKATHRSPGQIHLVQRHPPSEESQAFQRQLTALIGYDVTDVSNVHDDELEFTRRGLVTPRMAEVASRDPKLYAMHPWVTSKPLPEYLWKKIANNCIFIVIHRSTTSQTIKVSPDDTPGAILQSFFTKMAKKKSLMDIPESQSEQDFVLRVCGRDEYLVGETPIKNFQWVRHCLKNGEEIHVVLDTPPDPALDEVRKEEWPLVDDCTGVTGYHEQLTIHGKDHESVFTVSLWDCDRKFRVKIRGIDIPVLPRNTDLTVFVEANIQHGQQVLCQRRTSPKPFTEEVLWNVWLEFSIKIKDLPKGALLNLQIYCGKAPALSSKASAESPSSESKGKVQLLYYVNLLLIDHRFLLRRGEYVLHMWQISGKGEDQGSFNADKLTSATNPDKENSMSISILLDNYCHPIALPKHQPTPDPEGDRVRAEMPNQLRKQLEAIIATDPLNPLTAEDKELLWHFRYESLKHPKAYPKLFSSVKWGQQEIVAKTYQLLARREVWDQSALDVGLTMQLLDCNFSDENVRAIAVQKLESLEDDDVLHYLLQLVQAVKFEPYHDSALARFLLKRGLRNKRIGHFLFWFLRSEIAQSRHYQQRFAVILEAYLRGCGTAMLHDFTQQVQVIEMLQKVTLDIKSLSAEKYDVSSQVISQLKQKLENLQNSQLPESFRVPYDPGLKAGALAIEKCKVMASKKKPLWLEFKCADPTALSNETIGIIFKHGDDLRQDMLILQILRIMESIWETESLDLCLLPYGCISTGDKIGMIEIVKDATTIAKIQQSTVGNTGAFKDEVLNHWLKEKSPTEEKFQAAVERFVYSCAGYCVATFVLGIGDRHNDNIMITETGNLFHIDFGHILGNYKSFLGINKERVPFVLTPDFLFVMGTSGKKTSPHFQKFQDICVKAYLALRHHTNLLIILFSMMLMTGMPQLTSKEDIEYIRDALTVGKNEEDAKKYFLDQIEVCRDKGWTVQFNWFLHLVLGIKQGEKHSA
Chain of PI3kα (P42336 whole entry, canonical isoform): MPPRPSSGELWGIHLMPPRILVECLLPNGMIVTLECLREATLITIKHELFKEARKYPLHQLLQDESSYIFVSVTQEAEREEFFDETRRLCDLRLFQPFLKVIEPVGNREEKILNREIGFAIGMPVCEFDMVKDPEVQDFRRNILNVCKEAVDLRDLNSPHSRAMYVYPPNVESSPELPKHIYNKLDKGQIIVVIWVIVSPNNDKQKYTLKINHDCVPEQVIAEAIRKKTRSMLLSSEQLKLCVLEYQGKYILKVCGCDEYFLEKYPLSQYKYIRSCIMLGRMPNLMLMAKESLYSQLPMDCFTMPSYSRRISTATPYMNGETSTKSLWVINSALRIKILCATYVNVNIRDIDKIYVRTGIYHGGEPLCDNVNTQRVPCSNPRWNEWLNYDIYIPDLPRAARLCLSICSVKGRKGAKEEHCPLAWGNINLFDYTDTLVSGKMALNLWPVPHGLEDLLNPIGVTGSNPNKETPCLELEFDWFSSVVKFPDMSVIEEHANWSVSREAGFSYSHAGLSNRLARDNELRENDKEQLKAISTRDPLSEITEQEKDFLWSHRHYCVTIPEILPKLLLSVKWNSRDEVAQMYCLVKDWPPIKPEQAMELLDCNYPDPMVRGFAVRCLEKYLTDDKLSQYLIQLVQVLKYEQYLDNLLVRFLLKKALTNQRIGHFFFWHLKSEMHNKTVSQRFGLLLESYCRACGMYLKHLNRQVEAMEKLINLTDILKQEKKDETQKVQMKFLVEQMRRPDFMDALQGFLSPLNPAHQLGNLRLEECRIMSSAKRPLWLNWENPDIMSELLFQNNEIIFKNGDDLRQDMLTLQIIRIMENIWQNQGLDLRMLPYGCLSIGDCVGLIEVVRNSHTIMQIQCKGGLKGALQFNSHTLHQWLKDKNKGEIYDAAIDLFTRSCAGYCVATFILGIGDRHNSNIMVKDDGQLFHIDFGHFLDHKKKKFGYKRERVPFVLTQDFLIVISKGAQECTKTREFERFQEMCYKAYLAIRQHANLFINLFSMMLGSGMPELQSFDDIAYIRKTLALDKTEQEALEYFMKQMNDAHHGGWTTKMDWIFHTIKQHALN
Chain of PI3kα (P27986 whole entry partner, canonical isoform): as the sequence (P27986 whole entry partner) above
Chain of PI3kδ (O00329 whole entry): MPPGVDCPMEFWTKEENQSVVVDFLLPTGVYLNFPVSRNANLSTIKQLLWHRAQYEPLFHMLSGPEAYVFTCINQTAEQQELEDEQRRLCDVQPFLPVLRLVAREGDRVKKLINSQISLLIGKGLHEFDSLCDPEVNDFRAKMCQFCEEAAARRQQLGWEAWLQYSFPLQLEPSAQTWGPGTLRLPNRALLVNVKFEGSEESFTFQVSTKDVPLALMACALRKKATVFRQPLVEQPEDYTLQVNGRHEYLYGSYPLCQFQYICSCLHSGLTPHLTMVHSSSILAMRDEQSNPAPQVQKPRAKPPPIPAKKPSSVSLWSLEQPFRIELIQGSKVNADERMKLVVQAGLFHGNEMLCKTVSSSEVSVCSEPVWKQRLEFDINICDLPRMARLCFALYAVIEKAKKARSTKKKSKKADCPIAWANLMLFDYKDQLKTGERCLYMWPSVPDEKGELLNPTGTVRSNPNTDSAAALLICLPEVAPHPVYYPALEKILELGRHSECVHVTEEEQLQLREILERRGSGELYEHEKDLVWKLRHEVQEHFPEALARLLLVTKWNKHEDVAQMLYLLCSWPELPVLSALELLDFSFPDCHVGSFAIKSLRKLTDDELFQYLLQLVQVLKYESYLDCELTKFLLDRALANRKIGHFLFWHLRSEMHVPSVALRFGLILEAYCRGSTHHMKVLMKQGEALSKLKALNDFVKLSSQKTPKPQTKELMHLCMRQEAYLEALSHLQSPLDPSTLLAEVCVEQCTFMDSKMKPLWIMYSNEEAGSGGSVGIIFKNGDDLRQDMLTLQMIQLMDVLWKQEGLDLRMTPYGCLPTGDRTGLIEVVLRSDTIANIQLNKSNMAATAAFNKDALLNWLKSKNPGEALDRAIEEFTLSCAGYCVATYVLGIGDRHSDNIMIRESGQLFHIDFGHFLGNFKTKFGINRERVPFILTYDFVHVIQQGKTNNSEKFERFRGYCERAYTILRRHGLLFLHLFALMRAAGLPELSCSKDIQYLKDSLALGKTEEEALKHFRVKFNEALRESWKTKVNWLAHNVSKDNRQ
Chain of PI3kδ (P27986 whole entry partner): as the sequence (P27986 whole entry partner) above

Compound	inhibition at 1 µM [1]	inhibition at 1 µM [2]	inhibition at 0.1 µM [3]	inhibition at 0.1 µM ([4]; 100 nM (Examples 60-137))	melting point	IC50 [4]	% inhibition (PI3kγ) 100 nM ([3]; 0.1 µM)	% inhibition (PI3kδ) 100 nM ([4]; 100 nM (Examples 60-137), 0.1 µM)
CC(c1oc2cccc(F)c2c(=O)c1-c1cccc(F)c1)n1nc(C#CCO)c2c(N)ncnc21 (stereo not drawn) [Example 66, 2-(1-(4-amino-3-(3-hydroxyprop-1-ynyl)-1H-pyrazolo[3,4-d]pyrimidin-1-yl)ethyl)-5-fluoro-3-(3-fluorophenyl)-4H-chromen-4-one]	25 to 50%	25 to 50%	25 to 50%	25 to 50%	220 to 222 °C	–	–	–
CC(c1oc2cccc(F)c2c(=O)c1-c1cccc(F)c1)n1nc(-c2ccc(CNC(=O)OC(C)(C)C)o2)c2c(N)ncnc21 (stereo not drawn) [Example 74, tert-butyl (5-(4-amino-1-(1-(5-fluoro-3-(3-fluorophenyl)-4-oxo-4H-chromen-2-yl)ethyl)-1H-pyrazolo[3,4-d]pyrimidin-3-yl)furan-2-yl)methylcarbamate]	0 to 25%	25 to 50%	25 to 50%	50 to 75%	163 to 166 °C	–	–	–
CC(c1oc2cccc(F)c2c(=O)c1-c1cccc(F)c1)n1nc(-c2ccc(CN3CCOCC3)s2)c2c(N)ncnc21 (stereo not drawn) [Example 76, 2-(1-(4-amino-3-(5-(morpholinomethyl)thiophen-2-yl)-1H-pyrazolo[3,4-d]pyrimidin-1-yl)ethyl)-5-fluoro-3-(3-fluorophenyl)-4H-chromen-4-one]	0 to 25%	25 to 50%	25 to 50%	25 to 50%	193 to 196 °C	–	–	–
CC(c1oc2cccc(F)c2c(=O)c1-c1cccc(F)c1)n1nc(-c2ccc(-c3nnc(N)s3)cc2)c2c(N)ncnc21 (stereo not drawn) [Example 77, 2-(1-(4-amino-3-(4-(5-amino-1,3,4-thiadiazol-2-yl)phenyl)-1H-pyrazolo[3,4-d]pyrimidin-1-yl)ethyl)-5-fluoro-3-(3-fluorophenyl)-4H-chromen-4-one]	25 to 50%	50 to 75%	25 to 50%	50 to 75%	202 to 205 °C	50 to 100 nM	–	–
Cc1nn(C)c2cc(-c3nn(C(C)c4oc5cccc(F)c5c(=O)c4-c4cccc(F)c4)c4ncnc(N)c34)ccc12 (stereo not drawn) [Example 79, 2-(1-(4-amino-3-(1,3-dimethyl-1H-indazol-6-yl)-1H-pyrazolo[3,4-d]pyrimidin-1-yl)ethyl)-5-fluoro-3-(3-fluorophenyl)-4H-chromen-4-one]	25 to 50%	25 to 50%	25 to 50%	0 to 25%	220 to 224 °C	–	–	–
Cc1c2ccc(-c3nn(C(C)c4oc5cccc(F)c5c(=O)c4-c4cccc(F)c4)c4ncnc(N)c34)cc2nn1C (stereo not drawn) [Example 80, 2-(1-(4-amino-3-(2,3-dimethyl-2H-indazol-6-yl)-1H-pyrazolo[3,4-d]pyrimidin-1-yl)ethyl)-5-fluoro-3-(3-fluorophenyl)-4H-chromen-4-one]	50 to 75%	25 to 50%	25 to 50%	50 to 75%	232 to 235 °C	–	–	–
CC(C)C(=O)Nc1ccc(-c2nn(C(C)c3oc4cccc(F)c4c(=O)c3-c3cccc(F)c3)c3ncnc(N)c23)cc1F (stereo not drawn) [Example 81, N-(4-(4-amino-1-(1-(5-fluoro-3-(3-fluorophenyl)-4-oxo-4H-chromen-2-yl)ethyl)-1H-pyrazolo[3,4-d]pyrimidin-3-yl)-2-fluorophenyl)isobutyramide]	25 to 50%	25 to 50%	25 to 50%	50 to 75%	249 to 252 °C	–	–	–
CC(=O)Nc1ccc(-c2nn(C(C)c3oc4cccc(F)c4c(=O)c3-c3cccc(F)c3)c3ncnc(N)c23)cc1F (stereo not drawn) [Example 82, N-(4-(4-amino-1-(1-(5-fluoro-3-(3-fluorophenyl)-4-oxo-4H-chromen-2-yl)ethyl)-1H-pyrazolo[3,4-d]pyrimidin-3-yl)-2-fluorophenyl)acetamide]	25 to 50%	25 to 50%	25 to 50%	25 to 50%	220 to 223 °C	–	–	–
CC(C)Oc1ccc(-c2nn(C(C)c3oc4cccc(F)c4c(=O)c3-c3cccc(F)c3)c3ncnc(N4CCOCC4)c23)cc1F (stereo not drawn) [Example 85, 5-fluoro-2-(1-(3-(3-fluoro-4-isopropoxyphenyl)-4-morpholino-1H-pyrazolo[3,4-d]pyrimidin-1-yl)ethyl)-3-(3-fluorophenyl)-4H-chromen-4-one]	0 to 25%	25 to 50%	–	–	116 to 119 °C	–	C (C=>25 to 50%)	C (C=>25 to 50%)
CC(C)C(=O)Nc1ccc(-c2nn(C(C)c3oc4cccc(F)c4c(=O)c3-c3cccc(F)c3)c3ncnc(N4CCOCC4)c23)cc1F (stereo not drawn) [Example 87, N-(2-fluoro-4-(1-(1-(5-fluoro-3-(3-fluorophenyl)-4-oxo-4H-chromen-2-yl)ethyl)-4-morpholino-1H-pyrazolo[3,4-d]pyrimidin-3-yl)phenyl)isobutyramide]	25 to 50%	50 to 75%	0 to 25%	50 to 75%	168 to 170 °C	100 to 300 nM	–	–
Cc1n[nH]c2cc(-c3nn(C(C)c4oc5cccc(F)c5c(=O)c4-c4cccc(F)c4)c4ncnc(N5CCOCC5)c34)ccc12 (stereo not drawn) [Example 112, 5-fluoro-3-(3-fluorophenyl)-2-(1-(3-(3-methyl-1H-indazol-6-yl)-4-morpholino-1H-pyrazolo[3,4-d]pyrimidin-1-yl)ethyl)-4H-chromen-4-one]	50 to 75%	0 to 25%	50 to 75%	50 to 75%	183 to 186 °C	–	–	–
CC(C)Oc1ccc(-c2nn(C(C)c3oc4cccc(N5CCOCC5)c4c(=O)c3-c3ccccc3)c3ncnc(N)c23)cc1F (stereo not drawn) [Example 121, 2-(1-(4-amino-3-(3-fluoro-4-isopropoxyphenyl)-1H-pyrazolo[3,4-d]pyrimidin-1-yl)ethyl)-5-morpholino-3-phenyl-4H-chromen-4-one]	25 to 50%	25 to 50%	50 to 75%	0 to 25%	211 to 214 °C	–	–	–
CC(c1oc2cccc(F)c2c(=O)c1-c1cccc(F)c1)n1nc(-c2ccc3c(c2)CNC3=O)c2c(N)ncnc21 (stereo not drawn) [Example 123, 5-(4-amino-1-(1-(5-fluoro-3-(3-fluorophenyl)-4-oxo-4H-chromen-2-yl)ethyl)-1H-pyrazolo[3,4-d]pyrimidin-3-yl)isoindolin-1-one]	0 to 25%	25 to 50%	0 to 25%	50 to 75%	293 to 296 °C	–	–	–
CC(Nc1ncnc2[nH]cnc12)c1oc2cccc(F)c2c(=O)c1-c1ccccc1F (stereo not drawn) [Example 131, 2-(1-(9H-purin-6-ylamino)ethyl)-5-fluoro-3-(2-fluorophenyl)-4H-chromen-4-one]	25 to 50%	0 to 25%	25 to 50%	25 to 50%	203 to 205 °C	–	–	–
